Earlier results in patent US12496345B2, “Method of treating cancer” (Intensity Therapeutics, Inc., priority 2012, dated 2025).

Legend:
[1] = not given; remark: listed apart in the source
[2] = not given; remark: listed apart in the source

SMILES | oral bioavailability (carboplatin alone, highly variable) | soluble in water [1] | pH of a 1% solution [2] | oral absorption (in vivo, po)
N.N.O=C([O-])C1(C(=O)[O-])CCC1.[Pt+2] [Carboplatin, platinum, diammine [1,1-cyclobutane-dicarboxylato (2−)-0,0′]-(SP-4-2)] | approximately 4% | approximately 14 mg/mL | 5-7 | 
O=c1[nH]cc(F)c(=O)[nH]1 [5-FU, fluorouracil] |  |  |  | not orally absorbed
